Measured values from ChEMBL document CHEMBL4425190, “Rat intestinal sucrase inhibited by minor constituents from the leaves and twigs of Archidendron clypearia (Jack.) Nielsen” (Bioorg Med Chem Lett, 2016).

What follows are compounds tested against Sucrase-isomaltase, intestinal (Rattus norvegicus) (UniProt P23739) (assay: Inhibition of rat small intestinal sucrase using sucrose as substrate assessed as amount of liberated glucose at 1 mM after 30 mins by glucose oxidase method). Conditions: not given.
Sequence of Sucrase-isomaltase, intestinal (Rattus norvegicus) (P23739 1-1013 limits assumed): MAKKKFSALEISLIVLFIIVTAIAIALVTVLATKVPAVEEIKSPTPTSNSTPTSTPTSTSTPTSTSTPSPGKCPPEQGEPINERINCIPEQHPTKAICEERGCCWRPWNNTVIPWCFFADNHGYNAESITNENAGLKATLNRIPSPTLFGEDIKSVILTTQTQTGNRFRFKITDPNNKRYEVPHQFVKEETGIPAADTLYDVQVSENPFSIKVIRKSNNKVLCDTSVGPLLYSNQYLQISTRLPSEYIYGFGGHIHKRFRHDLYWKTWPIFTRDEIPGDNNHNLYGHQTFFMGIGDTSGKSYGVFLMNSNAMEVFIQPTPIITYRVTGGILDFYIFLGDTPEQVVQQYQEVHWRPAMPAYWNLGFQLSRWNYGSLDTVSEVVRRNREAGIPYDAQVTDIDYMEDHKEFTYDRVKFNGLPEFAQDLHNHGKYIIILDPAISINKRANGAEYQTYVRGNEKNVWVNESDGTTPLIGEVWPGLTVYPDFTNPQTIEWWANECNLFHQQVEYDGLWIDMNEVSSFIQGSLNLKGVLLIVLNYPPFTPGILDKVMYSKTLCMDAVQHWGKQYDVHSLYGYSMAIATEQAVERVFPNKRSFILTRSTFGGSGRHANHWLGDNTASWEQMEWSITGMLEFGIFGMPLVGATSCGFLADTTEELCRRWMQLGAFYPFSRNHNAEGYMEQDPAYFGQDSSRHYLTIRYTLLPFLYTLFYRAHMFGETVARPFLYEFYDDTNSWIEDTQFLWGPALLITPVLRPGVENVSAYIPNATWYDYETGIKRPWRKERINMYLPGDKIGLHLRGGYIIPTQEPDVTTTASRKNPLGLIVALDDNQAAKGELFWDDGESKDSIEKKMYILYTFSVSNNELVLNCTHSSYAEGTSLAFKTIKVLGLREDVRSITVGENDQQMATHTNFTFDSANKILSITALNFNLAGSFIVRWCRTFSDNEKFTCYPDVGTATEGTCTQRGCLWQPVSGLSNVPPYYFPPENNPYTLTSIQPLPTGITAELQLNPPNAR
Sequence of Sucrase-isomaltase, intestinal (Rattus norvegicus) (P23739 1014-1841 limits assumed): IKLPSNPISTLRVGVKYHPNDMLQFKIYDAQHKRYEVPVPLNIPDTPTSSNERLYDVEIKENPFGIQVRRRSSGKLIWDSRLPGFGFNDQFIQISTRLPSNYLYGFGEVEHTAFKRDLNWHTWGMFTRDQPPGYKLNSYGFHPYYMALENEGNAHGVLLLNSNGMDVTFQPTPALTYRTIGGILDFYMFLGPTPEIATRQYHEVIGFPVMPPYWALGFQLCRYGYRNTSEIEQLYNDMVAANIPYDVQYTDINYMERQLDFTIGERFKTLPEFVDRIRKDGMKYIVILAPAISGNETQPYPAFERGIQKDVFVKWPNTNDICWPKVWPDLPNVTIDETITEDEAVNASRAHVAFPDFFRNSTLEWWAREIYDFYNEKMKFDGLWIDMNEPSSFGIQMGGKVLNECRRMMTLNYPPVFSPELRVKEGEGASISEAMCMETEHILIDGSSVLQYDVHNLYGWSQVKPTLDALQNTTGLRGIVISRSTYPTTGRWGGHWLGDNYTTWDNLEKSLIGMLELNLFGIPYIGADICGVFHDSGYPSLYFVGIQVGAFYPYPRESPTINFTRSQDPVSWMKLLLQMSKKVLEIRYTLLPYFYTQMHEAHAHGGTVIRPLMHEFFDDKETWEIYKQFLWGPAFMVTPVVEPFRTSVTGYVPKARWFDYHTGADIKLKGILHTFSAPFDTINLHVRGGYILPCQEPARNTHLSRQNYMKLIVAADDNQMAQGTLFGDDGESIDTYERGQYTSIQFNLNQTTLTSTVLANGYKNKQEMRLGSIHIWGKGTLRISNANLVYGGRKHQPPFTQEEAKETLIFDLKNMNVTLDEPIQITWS

Going from `CC1=CC(=O)CC(C)(C)[C@@]1(O)/C=C/[C@@H](C)O[C@@H]1O[C@H](CO)[C@@H](O)[C@H](O)[C@H]1O` to `CC(=O)OC[C@H]1O[C@@H](O[C@H](C)/C=C/[C@@]2(O)C(C)=CC(=O)CC2(C)C)[C@H](O)[C@@H](O)[C@@H]1O`, the inhibition rises from 23.7% to 29.8%.

Compared with `COc1cc(/C=C/CO)cc(OC)c1O[C@H]1O[C@H](CO)[C@@H](O)[C@H](O)[C@H]1O`, `COc1cc(/C=C/CO)ccc1O[C@@H]1O[C@H](CO)[C@@H](O)[C@H](O)[C@H]1O` is lower in inhibition: 14.6% for the first, 11% for the second.

First: COc1cc([C@H]2c3c(cc(OC)c(O)c3OC)C[C@H](CO)[C@H]2CO[C@@H]2O[C@H](CO)[C@@H](O)[C@H](O)[C@H]2O)cc(OC)c1O
Second: COc1cc([C@@H]2c3c(cc(OC)c(O)c3OC)C[C@H](CO)[C@H]2CO[C@@H]2O[C@H](CO)[C@@H](O)[C@H](O)[C@H]2O)cc(OC)c1O
The inhibition of the first is lower: 10.8% for the first, 66.3% for the second.

Going from `COc1cc(C[C@H]2CO[C@H](c3cc(OC)c(O)c(OC)c3)[C@H]2CO[C@@H]2O[C@H](CO)[C@@H](O)[C@H](O)[C@H]2O)cc(OC)c1O` to `COc1cc([C@H]2c3c(cc(OC)c(O)c3OC)C[C@H](CO)[C@H]2CO)cc(OC)c1O`, the inhibition falls from 81.6% to 57.5%.

First: CC1=CC(=O)CC(C)(C)C1/C=C/[C@@H](C)O[C@@H]1O[C@H](CO[C@@H]2OC[C@](O)(CO)[C@H]2O)[C@@H](O)[C@H](O)[C@H]1O (stereo not given in full)
Second: CC1=CC(=O)CC(C)(C)[C@@]1(O)/C=C/[C@@H](C)O[C@@H]1O[C@H](CO[C@@H]2OC[C@](O)(CO)[C@H]2O)[C@@H](O)[C@H](O)[C@H]1O
The inhibition of the first is lower: 13.6% for the first, 35.1% for the second.

Going from `N#C[C@H](O[C@@H]1O[C@H](CO[C@@H]2O[C@H](CO)[C@@H](O)[C@H](O)[C@H]2O)[C@@H](O)[C@H](O)[C@H]1O)c1ccccc1` to `C[C@](O)(CC(=O)O)CC(=O)O[C@@H]1[C@@H](O)[C@H](OCc2ccccc2)O[C@H](CO)[C@H]1O`, the inhibition rises from 50.4% to 88.4%.

Compared with `COc1cc([C@H]2OC[C@H]3[C@@H]2CO[C@@H]3c2ccc(O)c(OC)c2)ccc1O`, `COc1cc(/C=C/CO)cc(O[C@@H]2O[C@H](CO)[C@@H](O)[C@H](O)[C@H]2O[C@@H]2OC[C@](O)(CO)[C@H]2O)c1OC` is lower in inhibition: 51.3% for the first, 31.3% for the second.

Each compound was assayed against Sucrase-isomaltase, intestinal (Rattus norvegicus) (UniProt P23739). Conditions: 0.02 mM.
Description: Inhibition of rat small intestinal sucrase using sucrose as substrate assessed as amount of liberated glucose at 0.02 mM after 30 mins by glucose oxidase method

`C[C@H]1O[C@H](O[C@H]2[C@H](O)[C@@H](O)[C@@H](O[C@H]3[C@H](O)[C@@H](O)C(O)O[C@@H]3CO)O[C@@H]2CO)[C@H](O)[C@@H](O)[C@@H]1N[C@H]1C=C(CO)[C@@H](O)[C@H](O)[C@H]1O` (stereo not given in full) was tested, and the inhibition was 89.5%.
